Test results: US20020107269A1, “Benzoxazole LPAAT-B inhibitors and uses thereof” (CELL THERAPEUTICS, INC., priority 2000, published 2002)

What follows are molecules tested against T1, LPAAT-β (Homo sapiens, UniProt O15120) (assay: LPAAT-β colorimetric assay (DTNB detection of released CoA)). Conditions: Sf9 cell membrane overexpressing LPAAT-β; 18:1-CoA and sn-1-18:1 lysoPA; absorbance at 405 nm; read-out: LPAATβ Colorimetric Assay IC50.
T1 construct: the full-length human LPAAT-β cDNA was amplified by PCR; poly-histidine tag (N); made in house; host or cells: Sf9 insect cells (baculovirus, pFastBac HTc); membrane fraction used
T1 sequence (O15120 24-278): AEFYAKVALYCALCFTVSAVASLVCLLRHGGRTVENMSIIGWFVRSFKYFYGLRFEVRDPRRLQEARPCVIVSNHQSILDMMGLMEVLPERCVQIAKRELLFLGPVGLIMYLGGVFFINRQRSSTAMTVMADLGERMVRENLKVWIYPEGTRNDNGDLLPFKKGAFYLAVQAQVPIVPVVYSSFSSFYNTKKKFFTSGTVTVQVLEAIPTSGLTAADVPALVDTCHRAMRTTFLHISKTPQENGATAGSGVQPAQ
Assay type: biochemical
From the text: For the construction of Baculovirus expression vectors, the full-length human LPAAT-β cDNA was amplified by PCR from the DNA template pCE9.LPAAT-β (West et al., DNA Cell Biol. 16:691-701 (1997)) using the primers 5′-TGATATCCGAAGAAGATCTTATGGAGCTGTGGCCGTGTC-3′ (olpb1F) and 5′-CAGGCTCTAG ACTACTGGGC CGGCTGCAC-3′ (olpb1R). The ˜870 bp fragment generated was reamplified by PCR using the primers 5′ CCTACGTCG ACATGGAACAAAAATTGATATCCGAAGAAGATC-3′ (olpb2F) and 5′-CAGGCTCTAG ACTACTGGGC CGGCTGCAC-3′ (olpb1R). The ˜890 bp fragment generated was then cleaved with Sal I and Xba I for insertion into pFastBac™ HTc vector (Life Technologies, Gaithersberg, Md.) between the Sal I and Xba I sites for the generation of the plasmid pFB.LPAAT-β. This plasmid was then transformed into E. coli DH10Bac™ (Life Technologies, Gaithersberg, Md.) for the generation of recombinant Bacmid DNA for transfection into HighFive (Invitrogen, San Diego, Calif.) or SF9 insect cells for the production of recombinant Baculovirus stocks using the protocol described in the Bac-to-Bac® Baculovirus Expression System (Life Technologies, Gaithersberg, Md.), a eukaryotic expression system for generating recombinant baculovirus through site-specific transposition in E. coli. Viral stocks harvested from the transfected cells can then be used to infect fresh insect cells for the subsequent expression of LPAAT-β fusion protein with a poly-histidine tag and a myc-epitope near its N-terminus. The membrane fraction from these Sf9 cells would be the source of LPAAT enzyme.
For the preparation of membranes From Sf9 Cells, all steps are performed on ice or at 4° C. Sf9 cell pellets ([…]) were thawed and resuspended in 1-2 ml of buffer A (20 mM Hepes, pH 7.5, 1 mM DTT, 1 mM EDTA, 20% w/v glycerol, 1 mM Benzamidine, 1 μg/ml soybean trypsin inhibitor (SBTI), 1 μg/ml pepstatin A) w/o DTT but with 1 mM Pefabloc. The cells were lysed by sonication using a Branson Sonifier at output=2, duty cycle=2, 10 pulses each at 10 s. with the tip of small sonicator probe submerged but not touching the walls. DTT was then added to 1 mM from a 1M stock. The samples were centrifuged at 1500 rpm for 5 min. The low speed supernatant was saved and centrifuged (TLA 100.3 rotor, polycarbonate tubes, 2 ml/tube or 1.5 ml/tube minimum) at 100000×g for 1 hr. The high speed pellet was resuspend in Buffer A with a probe sonicator (10 pulses @ output #2 and duty cycle 20%) as a source of LPAAT enzyme.
LPAAT-β catalyzes the transfer of an acyl group from a donor such as acyl-CoA to LPA. The transfer of the acyl group from acyl-CoA to LPA leads to the release of free CoA, which can be reacted with the thiol reagent, 5,5′-dithiobis(2-nitrobenzoic acid) (DTNB). The reaction between DTNB and the free sulfhydryl group from CoA generates a yellow-colored product, 3-carboxylato-4-nitrothiophenolate (CNP), that absorbs at 413 nm. LPAAT-β derived from Sf9 cell membrane overexpressing LPAAT-β were resuspended in HEPES saline buffer (20 mM HEPES pH 7.5, 150 mM NaCl), 1 mg/ml BSA and 72 μl aliquots were distributed into 96-well microtiter plates. 8 μl of compound of interest at 200 μM dissolved in 100% DMSO was added into each well. 20 μl of 1 mM 18:1-CoA and 1 mM sn-1-18:1 lysoPA was then added to each well to initiate the reaction and allowed to run at room temperature for 25 min. 100 μl of 1 mM DTNB in 100% ethanol was then added to each well to quench the reaction and for color development. The absorbance at 405 nm, measured using a spectrophotometer plate reader, is proportional to the activity of LPAAT-β in the sample. This calorimetric assay was used for the high throughput screening of LPAAT inhibitors. […] Compounds that gave a reading of less than 0.06 arbitrary units (indicated by arrow on right margin) were selected for further study.

| Compound | IC50 [nM] |
| --- | --- |
| CCC(=O)Nc1ccc(Cl)c(-c2nc3cc(Cl)ccc3o2)c1 [CT-32160, N-(4-Chloro-3-(5-chloro-benzooxazol-2-yl)-phenyl)-propionamide] | 350 |
| CCC(=O)N(C)c1ccc(Cl)c(-c2nc3cc(C)ccc3o2)c1 [CT-32019, N-(4-Chloro-3-(5-methyl-benzooxazol-2-yl)-phenyl)-N-methyl-propionamide] | 12000 |
| COC(=O)Nc1ccc(Cl)c(-c2nc3ccccc3o2)c1 [CT-32009, (3-Benzooxazol-2-yl-4-chloro-phenyl)-carbamic Acid Methyl Ester] | 500 |
| COC(=O)Nc1ccc(Cl)c(-c2nc3cc(C(F)(F)F)ccc3s2)c1 [CT-32073, (4-Chloro-3-(5-trifluoromethyl-benzothiazol-2-yl)-phenyl)-carbamic Acid Methyl Ester] | 200 |
| N#CCC(=O)Nc1ccc(Cl)c(-c2nc3cc(Cl)ccc3o2)c1 [CT-32214, N-[4-Chloro-3-(5-chloro-benzooxazol-2-yl)-phenyl]-2-cyano-acetamide] | 270 |
| N#CCC(=O)Nc1ccc(Cl)c(-c2nc3cccnc3s2)c1 [CT-32315, N-(4Chloro-3-thiazolo[5,4,b]pyridin-2-yl-phenyl)-2-cyano-acetamide] | 110 |
| C#CCCC(=O)Nc1ccc(Cl)c(-c2nc3cc(Cl)ccc3s2)c1 [CT-32278, Pent-4-ynoic acid [4-chloro-3-(5-chloro-benzothiazol-2-yl)-phenyl]-amide] | 40 |
| C#CCOC(=O)Nc1ccc(Cl)c(-c2nc3c(C)cccc3o2)c1 [CT-32079, (4-Chloro-3-(4-methyl-benzooxazol-2-yl)-phenyl)-carbamic acid Prop-2-ynyl Ester] | 160 |
| CNC(=O)Nc1ccc(Cl)c(-c2nc3cc(C)ccc3o2)c1 [CT-32021, 1-(4-Chloro-3-(5-methyl-benzooxazol-2-yl)-phenyl)-3-methyl-urea] | 4000 |
| C#CCOC(=O)Nc1ccc(Cl)c(-c2nc3cc(Cl)ccc3n2C)c1 [CT-32243, [4-Chloro-3-(5-chloro-1-methyl-1H-benzoimidazol-2-yl)-phenyl]-carbamic Acid Prop-2-ynyl Ester] | 60 |
| C#CCOC(=O)Nc1ccc(C)c(-c2nc3cccnc3o2)c1 [CT-32290, (4-Methyl-3-oxazolo[5,4,b]pyridin-2-yl-phenyl)-carbamic Acid Prop-2-ynyl Ester] | 1200 |
| C#CCOC(=O)Nc1ccc(Cl)c(-c2nc3cc(C(F)(F)F)ccc3s2)c1 [CT-32143, (4-Chloro-3-(5-trifluoromethyl-benzothiazol-2-yl)-phenyl)-carbamic Acid Prop-2-ynyl Ester] | 15 |
| CCC(=O)Nc1ccc(Cl)c(-c2nc3cc(C(F)(F)F)ccc3s2)c1 [CT-32142, N-(4-Chloro-3-(5-trifluoromethyl-benzothiazol-2-yl)-phenyl)-propionamide] | 220 |
| N#CCC(=O)Nc1ccc(Cl)c(-c2nc3cccnc3o2)c1 [CT-32271, N-(4-Chloro-3-oxazolo[5,4,b]pyridin-2-yl-phenyl)-2-cyano-acetamide] | 190 |
| COC(=O)Nc1ccc(Cl)c(-c2nc3cc(C)ccc3n2C)c1 [CT-32061, (4-Chloro-3-(1,5-dimethyl-1H-benzoimidazol-2-yl)-phenyl)-carbamic Acid Methyl Ester] | 10800 |
| CC#CCOC(=O)Nc1ccc(Cl)c(-c2nc3cc(Cl)ccc3s2)c1 [CT-32262, (4-Chloro-3-(5-chloro-benzothiazol-2-yl)-phenyl)-carbamic Acid But-2-ynyl Ester] | 25 |

| Compound | IC50 [nM] |
| --- | --- |
| C#CCOC(=O)Nc1ccc(Cl)c(-c2nc3cc(C)ccc3o2)c1 [CT-32037, (4-Chloro-3-(5-methyl-benzooxazol-2-yl)-phenyl)-carbamic Acid Prop-2-ynyl Ester] | 190 |
| C#CCOC(=O)Nc1ccc(C)c(-c2nc3cc(Cl)ccc3s2)c1 [CT-32268, [3-(5-chloro-benzothiazol-2-yl)-4-methyl-phenyl]-carbamic Acid Prop-2-ynyl Ester] | 150 |
| CCC(=O)Nc1ccc(Cl)c(-c2nc3ccccc3o2)c1 [CT-32008, N-(3-Benzooxazol-2-yl-4-chloro-phenyl)-propionamide] | 900 |
| [N-]=[N+]=NCC(=O)Nc1ccc(Cl)c(-c2nc3cc(Cl)ccc3o2)c1 [CT-32289, 2-Azido-N-[4-chloro-3-(5-chloro-benzooxazol-2-yl)-phenyl]-acetamide] | 175 |
| C#CCCOC(=O)Nc1ccc(Cl)c(-c2nc3cc(Cl)ccc3s2)c1 [CT-32277, [4-Chloro-3-(5-chloro-benzothiazol-2-yl)-phenyl]-carbamic Acid But-3-ynyl Ester] | 55 |
| C#CCOC(=O)Nc1ccc(C)c(-c2nc3cc(C(F)(F)F)ccc3s2)c1 [CT-32203, 4-Methyl-3-(5-trifluoromethyl-benzothiazol-2-yl)-phenyl-carbamic Acid Prop-2-ynyl Ester] | 40 |
| C#CCOC(=O)Nc1ccc(Cl)c(-c2nc3cc(Cl)ccc3s2)c1 [CT-32192, (4-Chloro-3-(5-chloro-benzothiazol-2-yl)-phenyl)-carbamic Acid Prop-2-ynyl ester] | 6 |
| COC(=O)Nc1ccc(C)c(-c2nc3cc(C)ccc3o2)c1 [CT-32036, (4-Methyl-3-(5-methyl-benzooxazol-2-yl)-phenyl)-carbamic Acid Methyl Ester] | 1500 |
| N#CCC(=O)Nc1ccc(Cl)c(-c2nc3cc(Cl)ccc3s2)c1 [CT-32242, N-(4-Chloro-3-(5-chloro-benzothiazol-2-yl)-phenyl)-2-cyano-acetamide] | 15 |
| C#CCOC(=O)Nc1ccc(Cl)c(-c2nc3ccccc3o2)c1 [CT-32154, (3-Benzooxazol-2-yl-4-chloro-phenyl)-carbamic Acid Prop-2-ynyl Ester] | 50 |
| C#CCOC(=O)Nc1ccc(Cl)c(-c2nc3cc(Cl)ccc3o2)c1 [CT-32161, (4-Chloro-3-(5-chloro-benzooxazol-2-yl)-phenyl)-carbamic Acid Prop-2-ynyl Ester] | 35 |
| COC(=O)Nc1ccc(Cl)c(-c2nc3cc(Cl)ccc3o2)c1 [CT-32053, (4-Chloro-3-(5-chloro-benzooxazol-2-yl)-phenyl)-carbamic Acid Methyl Ester] | 300 |
| C#CCOC(=O)Nc1ccc(Cl)c(-c2nc3cc(C(F)(F)F)ccc3o2)c1 [CT-32173, (4-Chloro-3-(5-trifluoromethyl-benzooxazol-2-yl)-phenyl)-carbamic Acid Prop-2-ynyl Ester] | 140 |
| COC(=O)Nc1ccc(Cl)c(-c2nc3cc(Cl)ccc3s2)c1 [CT-32191, [4-Chloro-3-(5-chloro-benzothiazol-2-yl)-phenyl]-carbamic Acid Methyl Ester] | 40 |
| C#CCOC(=O)Nc1ccc(Cl)c(-c2nc3ncccc3o2)c1 [CT-32259, (4-Chloro-3-oxazolo[4,5,b]pyridin-2-yl-phenyl)-carbamic Acid Prop-2-ynyl Ester] | 800 |
